{
  "source": "patent US10053462B2",
  "about": "“P2X7 modulators” (Jansssen Pharmaceutica NV, priority 2013, dated 2018)",
  "molecular_target": "P2X7 (Homo sapiens (Human), UniProt Q99572)",
  "sequence (Q99572 whole entry)": "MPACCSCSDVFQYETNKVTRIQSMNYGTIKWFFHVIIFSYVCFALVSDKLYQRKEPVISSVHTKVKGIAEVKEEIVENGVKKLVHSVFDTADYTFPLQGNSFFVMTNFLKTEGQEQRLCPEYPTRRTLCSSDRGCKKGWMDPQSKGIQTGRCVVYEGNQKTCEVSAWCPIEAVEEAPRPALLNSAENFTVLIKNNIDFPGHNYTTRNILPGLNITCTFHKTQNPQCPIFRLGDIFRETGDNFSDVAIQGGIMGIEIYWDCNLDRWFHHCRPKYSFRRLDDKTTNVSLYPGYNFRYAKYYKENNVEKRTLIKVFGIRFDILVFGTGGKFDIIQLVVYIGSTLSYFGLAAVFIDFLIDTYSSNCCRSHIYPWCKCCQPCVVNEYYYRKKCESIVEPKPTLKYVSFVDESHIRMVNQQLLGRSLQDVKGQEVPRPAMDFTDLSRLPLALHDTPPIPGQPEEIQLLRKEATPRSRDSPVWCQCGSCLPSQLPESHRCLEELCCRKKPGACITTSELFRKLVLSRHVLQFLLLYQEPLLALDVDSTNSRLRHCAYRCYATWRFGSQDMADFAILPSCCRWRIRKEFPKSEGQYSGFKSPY",
  "test": "P2X7 antagonism in human peripheral blood mononuclear cells (PBMCs), IL-1β release",
  "format": "cell-based",
  "settings": "LPS 30 ng/ml + Bz-ATP 0.5 mM; for remaining activity at 10 µM: P2X7, Table 2 (additional runs), 10 μM compound, read-out: PBMC 10 μM (% control); for PBMC 10 μM (% control): Table 1, 10 μM compound",
  "procedure": "P2X7 Antagonism in Human Peripheral Blood Mononuclear Cells (PBMCs) and Human Whole Blood.\nHuman blood was collected using a blood donor program. PBMCs were isolated from blood using a Ficoll density gradient technique. Briefly, blood was laid on Ficoll solution and centrifuged at RT for 20 minutes at 2000 rpm. The buffy layer (between red blood cells and plasma) was carefully collected by aspiration, washed with PBS and centrifuged again at 1500 rpm for 15 minutes. The resulting cell pellet was washed and plated on 96 well-plates for experiments. For the Human Whole Blood experiments, 150 μl of human blood was platted on 96 well-plates. Lipopolysaccharide (LPS) (30 ng/ml) was added to each well and incubated for 1 hour. Test compounds were then added and incubated for 30 minutes. The P2X7 agonist, 2′(3′)-O-(4-benzoylbenzoyl) adenosine 5′-triphosphate (Bz-ATP) was then added at a final concentration of 0.5 mM (PBMC) or 1 mM (blood). Cells were incubated for an additional 1.5 hours. At that point, supernatant was collected and stored for IL-1β assay using manufacturer's protocol for enzyme-linked immunosorbent assay (ELISA). Data was expressed as percent control, where control is defined as the difference in IL-1β release in LPS+Bz-ATP samples and LPS only samples. Data was plotted as response (% control) versus concentration to generate IC50 values. […] Data are analyzed and graphed on Graphpad Prism 5. For analysis, each concentration point is averaged from triplicate values and the averaged values are plotted on Graphpad Prism.",
  "data": [
    {"smiles": "O=C(c1cccc(C(F)(F)F)c1Cl)N1[C@@H]2CCC[C@H]1c1nnc(-c3cc(C(F)(F)F)ccn3)n1C2", "note": "(stereo in doubt) [Example 196, (6R,10S)-11-{[2-Chloro-3-(trifluoromethyl)phenyl]carbonyl}-3-[4-(trifluoromethyl)pyridin-2-yl]-5,6,7,8,9,10-hexahydro-6,10-epimino[1,2,4]triazolo[4,3-a]azocine]", "values": [
      {"measurement": "remaining activity at 10 µM", "value": -0.2, "unit": "%"}
    ]},
    {"smiles": "O=C(c1cccc(C(F)(F)F)c1Cl)N1[C@@H]2CCC[C@H]1c1nnc(-c3ccncn3)n1C2", "note": "(stereo in doubt) [Example 197, (6R,10S)-11-{[2-Chloro-3-(trifluoromethyl)phenyl]carbonyl}-3-pyrimidin-4-yl-5,6,7,8,9,10-hexahydro-6,10-epimino[1,2,4]triazolo[4,3-a]azocine]", "values": [
      {"measurement": "remaining activity at 10 µM", "value": 1.8, "unit": "%"}
    ]},
    {"smiles": "O=C(c1ccnc(C(F)(F)F)c1F)N1[C@@H]2CCC[C@H]1c1nnc(-c3ccccn3)n1C2", "note": "(stereo in doubt) [Example 198, (6R,10S)-11-{[3-Fluoro-2-(trifluoromethyl)pyridin-4-yl]carbonyl}-3-pyridin-2-yl-5,6,7,8,9,10-hexahydro-6,10-epimino[1,2,4]triazolo[4,3-a]azocine]", "values": [
      {"measurement": "remaining activity at 10 µM", "value": 4.1, "unit": "%"}
    ]},
    {"smiles": "O=C(c1ccnc(C(F)(F)F)c1Cl)N1[C@@H]2CCC[C@H]1c1nnc(-c3ccccn3)n1C2", "note": "(stereo in doubt) [Example 199, (6R,10S)-11-{[3-Chloro-2-(trifluoromethyl)pyridin-4-yl]carbonyl}-3-pyridin-2-yl-5,6,7,8,9,10-hexahydro-6,10-epimino[1,2,4]triazolo[4,3-a]azocine]", "values": [
      {"measurement": "remaining activity at 10 µM", "value": -3.2, "unit": "%"}
    ]},
    {"smiles": "O=C(c1ccc(F)c(C(F)(F)F)c1Cl)N1[C@@H]2CCC[C@H]1c1nnc(-c3ccccn3)n1C2", "note": "(stereo in doubt) [Example 200, (6R,10S)-11-{[2-Chloro-4-fluoro-3-(trifluoromethyl)phenyl]carbonyl}-3-pyridin-2-yl-5,6,7,8,9,10-hexahydro-6,10-epimino[1,2,4]triazolo[4,3-a]azocine]", "values": [
      {"measurement": "remaining activity at 10 µM", "value": 7.7, "unit": "%"}
    ]},
    {"smiles": "Cc1c(C(=O)N2[C@@H]3CCC[C@H]2c2nnc(-c4ccccn4)n2C3)cccc1C(F)(F)F", "note": "(stereo in doubt) [Example 201, (6R,10S)-11-{[2-Methyl-3-(trifluoromethyl)phenyl]carbonyl}-3-pyridin-2-yl-5,6,7,8,9,10-hexahydro-6,10-epimino[1,2,4]triazolo[4,3-a]azocine]", "values": [
      {"measurement": "remaining activity at 10 µM", "value": -4, "unit": "%"}
    ]},
    {"smiles": "O=C(c1ccc(Cl)c(F)c1Cl)N1[C@@H]2CCC[C@H]1c1nnc(-c3ccccn3)n1C2", "note": "(stereo in doubt) [Example 202, (6R,10S)-11-[(2,4-Dichloro-3-fluorophenyl)carbonyl]-3-pyridin-2-yl-5,6,7,8,9,10-hexahydro-6,10-epimino[1,2,4]triazolo[4,3-a]azocine]", "values": [
      {"measurement": "remaining activity at 10 µM", "value": -2.3, "unit": "%"}
    ]},
    {"smiles": "O=C(c1ccc(F)c(Cl)c1Cl)N1[C@@H]2CCC[C@H]1c1nnc(-c3ccccn3)n1C2", "note": "(stereo in doubt) [Example 203, (6R,10S)-11-[(2,3-Dichloro-4-fluorophenyl)carbonyl]-3-pyridin-2-yl-5,6,7,8,9,10-hexahydro-6,10-epimino[1,2,4]triazolo[4,3-a]azocine]", "values": [
      {"measurement": "remaining activity at 10 µM", "value": -5, "unit": "%"}
    ]},
    {"smiles": "O=C(c1cccc(C(F)(F)F)c1Cl)N1[C@H]2CC[C@@H]1c1nnc(-c3ccccn3)n1C2", "note": "[Example 41, (6S,9R)-10-{[2-Chloro-3-(trifluoromethyl)phenyl]carbonyl}-3-pyridin-2-yl-6,7,8,9-tetrahydro-5H-6,9-epimino[1,2,4]triazolo[4,3-a]azepine]", "values": [
      {"measurement": "remaining activity at 10 µM", "value": -20, "unit": "%"},
      {"measurement": "PBMC 10 μM (% control)", "value": "−20.0", "unit": "% control"}
    ]},
    {"smiles": "O=C(c1cccc(C(F)(F)F)c1Cl)N1[C@H]2CC[C@@H]1c1nnc(-c3ncccn3)n1C2", "note": "[Example 46, (6S,9R)-10-{[2-Chloro-3-(trifluoromethyl)phenyl]carbonyl}-3-pyrimidin-2-yl-6,7,8,9-tetrahydro-5H-6,9-epimino[1,2,4]triazolo[4,3-a]azepine]", "values": [
      {"measurement": "remaining activity at 10 µM", "value": 10, "unit": "%"},
      {"measurement": "PBMC 10 μM (% control)", "value": 10.0, "unit": "% control"}
    ]},
    {"smiles": "Cc1c(C(=O)N2[C@H]3CC[C@@H]2c2nnc(-c4cscn4)n2C3)cccc1C(F)(F)F", "note": "[Example 53, (6S,9R)-10-{[2-Methyl-3-(trifluoromethyl)phenyl]carbonyl}-3-(1,3-thiazol-4-yl)-6,7,8,9-tetrahydro-5H-6,9-epimino[1,2,4]triazolo[4,3-a]azepine]", "values": [
      {"measurement": "remaining activity at 10 µM", "value": 4, "unit": "%"},
      {"measurement": "PBMC 10 μM (% control)", "value": 4.0, "unit": "% control"}
    ]},
    {"smiles": "Cc1ncsc1-c1nnc2n1C[C@@H]1CC[C@H]2N1C(=O)c1cccc(C(F)(F)F)c1Cl", "note": "[Example 59, (6S,9R)-10-{[2-Chloro-3-(trifluoromethyl)phenyl]carbonyl}-3-(4-methyl-1,3-thiazol-5-yl)-6,7,8,9-tetrahydro-5H-6,9-epimino[1,2,4]triazolo[4,3-a]azepine]", "values": [
      {"measurement": "remaining activity at 10 µM", "value": 0.6, "unit": "%"},
      {"measurement": "PBMC 10 μM (% control)", "value": 0.6, "unit": "% control"}
    ]}
  ]
}
